# ChEMBL document CHEMBL4837230, “Thiophene-2-carboxamide derivatives of anthraquinone: A new potent antitumor chemotype” (Eur J Med Chem, 2021)
# The source made the active and inactive calls. The calls are words filed in the database; no cut-off is given here.
# Tests used:
# [1] = tested on: NCI-H460; assay: Cytotoxicity in human NCI-H460 cells assessed as reduction in cell viability incubated for 72 hrs by MTT assay; assay type: functional, cell-based; conditions: NCI-H460, 72 h
# [2] = Cytotoxicity in human DND41 cells assessed as reduction in cell viability incubated for 72 hrs by MTT assay; assay type: functional, cell-based; conditions: DND41, 72 h
# [3] = tested on: HL-60; assay: Cytotoxicity in human HL-60 cells assessed as reduction in cell viability incubated for 72 hrs by MTT assay; assay type: functional, cell-based; conditions: HL-60, 72 h
# [4] = tested on: CAPAN-1; assay: Cytotoxicity in human CAPAN-1 cells assessed as reduction in cell viability incubated for 72 hrs by MTT assay; assay type: functional, cell-based; conditions: CAPAN-1, 72 h
# [5] = tested on: K562; assay: Induction of cell cycle arrest in human K562 cells assessed as increase in accumulation at sub-G1 phase at 2.5 uM after 48 hrs by propidium iodide staining based flow cytometric analysis (reference value: 8.4%); assay type: functional
# [6] = tested on: K562; assay: Induction of apoptosis in human K562 cells assessed as activation of casapse-3 cleavage measured after 24 hrs by Western blot analysis; assay type: functional, cell-based; conditions: dose 2.5 µM
# [7] = tested on: K562; assay: Induction of apoptosis in human K562 cells assessed as activation of PARP cleavage measured after 24 hrs by Western blot analysis; assay type: functional, cell-based
# [8] = Drug localization in mitochondria of mouse NIH3T3 cells at 1 uM measured after 60 mins by MitoTracker red based confocal microscopic method; assay type: ADME; conditions: nih3t3, 1 h
# [9] = Drug localization in cytoplasm of mouse NIH3T3 cells at 1 uM incubated for 5 to 60 mins by laser confocal microscopy; assay type: ADME, cell-based; conditions: nih3t3, 1 µM, time 5-60 min
# [10] = tested on: K562; assay: Induction of cell cycle arrest in human K562 cells assessed as increase in accumulation at sub-G1 phase at 5 uM after 24 hrs by propidium iodide staining based flow cytometric analysis (reference value: 8.4%); assay type: functional
# [11] = Drug localization in mitochondria of mouse NIH3T3 cells at 1 uM measured after 5 mins by MitoTracker red based confocal microscopic method; assay type: ADME; conditions: nih3t3, 5 min
# [12] = tested on: K562; assay: Induction of cell cycle arrest in human K562 cells assessed as increase in accumulation at sub-G1 phase at 0.5 uM after 48 hrs by propidium iodide staining based flow cytometric analysis (reference value: 8.4%); assay type: functional
# [13] = Drug localization in lysosome of mouse NIH3T3 cells at 1 uM incubated for 5 mins by lyso-tracker red based confocal microscopic method; assay type: ADME, cell-based; conditions: nih3t3, 5 min
# [14] = Drug localization in lysosome of mouse NIH3T3 cells at 1 uM incubated for 60 mins by lyso-tracker red based confocal microscopic method; assay type: ADME, cell-based; conditions: nih3t3, 1 h
# [15] = tested on: HeLa; assay: Cytotoxicity in human HeLa cells assessed as reduction in cell viability incubated for 72 hrs by MTT assay; assay type: functional, cell-based
# [16] = biological target: T1, DNA topoisomerase 1 (Homo sapiens) (UniProt P11387); assay: Inhibition of topoisomerase 1 (unknown origin) assessed as relaxation of supercoiled plasmid pBR322 DNA at 1 to 5 uM incubated for 30 mins by electrophoresis; conditions: dose 1-5 µM
# T1 sequence (whole entry): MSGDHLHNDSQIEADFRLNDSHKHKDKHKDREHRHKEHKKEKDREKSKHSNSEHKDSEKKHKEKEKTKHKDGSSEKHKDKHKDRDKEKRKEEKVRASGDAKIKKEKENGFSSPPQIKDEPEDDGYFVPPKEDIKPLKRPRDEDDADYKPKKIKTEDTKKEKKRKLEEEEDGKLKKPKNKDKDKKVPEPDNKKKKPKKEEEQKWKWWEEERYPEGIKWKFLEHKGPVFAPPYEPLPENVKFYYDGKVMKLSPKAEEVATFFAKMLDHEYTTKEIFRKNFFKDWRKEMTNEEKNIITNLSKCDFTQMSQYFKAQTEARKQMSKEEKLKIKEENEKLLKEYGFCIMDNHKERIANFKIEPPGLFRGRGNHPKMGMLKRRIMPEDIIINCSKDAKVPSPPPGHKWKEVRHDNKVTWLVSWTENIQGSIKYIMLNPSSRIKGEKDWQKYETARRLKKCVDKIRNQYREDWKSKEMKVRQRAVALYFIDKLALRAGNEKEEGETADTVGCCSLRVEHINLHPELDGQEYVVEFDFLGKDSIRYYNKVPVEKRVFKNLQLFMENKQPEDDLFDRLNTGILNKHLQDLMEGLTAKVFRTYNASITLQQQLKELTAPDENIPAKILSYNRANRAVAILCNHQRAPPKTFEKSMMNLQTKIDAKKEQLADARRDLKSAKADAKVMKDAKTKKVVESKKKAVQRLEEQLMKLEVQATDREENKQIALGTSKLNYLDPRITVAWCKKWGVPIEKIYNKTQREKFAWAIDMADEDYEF
# [17] = tested on: Fibroblast; assay: Cytotoxicity in human Fibroblast cells assessed as reduction in cell viability incubated for 72 hrs by MTT assay; assay type: functional, cell-based
# [18] = Resistance index, ratio of IC50 for cytotoxicity against human K562/4 cells to IC50 for cytotoxicity against human K562 cells; assay type: functional
# [19] = tested on: K562; assay: Induction of mitochondrial membrane potential loss in human K562 cells at 7.5 uM after 6 hrs by Mitotracker Red dye based flow cytometric analysis; assay type: functional, cell-based
# [20] = Drug localization in nuclei of mouse NIH3T3 cells at 1 uM incubated for 5 to 60 mins by Hoechst 33258 staining based laser confocal microscopy; assay type: ADME, cell-based; conditions: nih3t3, 1 µM, time 5-60 min
# [21] = tested on: K562; assay: Induction of cell cycle arrest in human K562 cells assessed as increase in accumulation at sub-G1 phase at 0.5 uM after 24 hrs by propidium iodide staining based flow cytometric analysis (reference value: 8.4%); assay type: functional
# [22] = tested on: Calf thymus DNA; assay: Binding affinity to calf thymus double strand DNA incubated for 5 mins by spectrophotometry; assay type: nucleic-acid assay; conditions: Bos taurus
# [23] = tested on: HCT-116; assay: Cytotoxicity against p53 knock out human HCT-116 cells assessed as reduction in cell viability incubated for 72 hrs by MTT assay; assay type: functional, cell-based; conditions: HCT-116, 72 h
# [24] = tested on: K562; assay: Induction of cell cycle arrest in human K562 cells assessed as increase in accumulation at sub-G1 phase at 5 uM after 48 hrs by propidium iodide staining based flow cytometric analysis (reference value: 8.4%); assay type: functional
# [25] = tested on: K562; assay: Induction of ROS generation in human K562 cells at 5 uM after 30 to 60 mins by Deep Red dye based flow cytometry method; assay type: functional, cell-based; conditions: time 30-60 min
# [26] = tested on: K562; assay: Induction of cell cycle arrest in human K562 cells assessed as increase in accumulation at sub-G1 phase at 2.5 uM after 24 hrs by propidium iodide staining based flow cytometric analysis (reference value: 8.4%); assay type: functional
# [27] = Cytotoxicity in human K562/4 cells assessed as reduction in cell viability incubated for 72 hrs by MTT assay; assay type: functional, cell-based; conditions: K562/4, 72 h
# [28] = tested on: HCT-116; assay: Cytotoxicity in human HCT-116 cells assessed as reduction in cell viability incubated for 72 hrs by MTT assay; assay type: functional, cell-based; conditions: HCT-116, 72 h
# [29] = tested on: K562; assay: Induction of apoptosis in human K562 cells assessed as activation of casapse-9 cleavage measured after 24 hrs by Western blot analysis; assay type: functional, cell-based
# [30] = Resistance index, ratio of IC50 for cytotoxicity against p53 knock out human HCT-116 cells to IC50 for cytotoxicity against human HCT-116 cells; assay type: functional
structure (smiles),measurement,setting,value
NCCN(CCN)C(=O)c1cc2c(O)c3c(c(O)c2s1)C(=O)c1ccccc1C3=O,IC50,[1],8300 nM
same,IC50,[2],3100 nM
same,IC50,[3],14100 nM
same,IC50,[4],16800 nM
Cc1c(C(=O)N2CC[C@@H](N)C2)sc2c(O)c3c(c(O)c12)C(=O)c1ccccc1C3=O,IC50,[1],1200 nM
same,IC50,[2],1400 nM
same,IC50,[3],1800 nM
same,IC50,[4],2000 nM
N[C@H]1CCN(C(=O)c2cc3c(O)c4c(c(O)c3o2)C(=O)c2ccccc2C4=O)C1,IC50,[1],> 20000 nM
same,Activity,[5],23%
same,Activity,[6],inactive
same,Activity,[7],inactive
same,Drug uptake,[8],Not Active
same,IC50,[2],1500 nM
same,Drug uptake,[9],Active
same,Activity,[10],40.2%
same,Drug uptake,[11],Not Active
same,Activity,[12],7%
same,Drug uptake,[13],Active
same,Drug uptake,[14],Active
same,IC50,[15],> 50000 nM
same,inhibition,[16],Active
same,IC50,[17],> 50000 nM
same,Ratio,[18],1.2
same,Activity,[19],inactive
same,Drug uptake,[20],Not Active
same,Activity,[21],14.8%
same,Activity,[22],Active
same,IC50,[23],> 50000 nM
same,Activity,[24],48.7%
same,Activity,[25],inactive
same,Activity,[26],24.2%
same,IC50,[3],700 nM
same,IC50,[27],600 nM
same,IC50,[4],> 20000 nM
same,IC50,[28],> 50000 nM
same,Activity,[29],inactive
same,Ratio,[30],1
O=C(NC1CN2CCC1CC2)c1cc2c(O)c3c(c(O)c2s1)C(=O)c1ccccc1C3=O (stereo not drawn),IC50,[1],> 20000 nM
same,IC50,[2],2400 nM
same,IC50,[3],7300 nM
same,IC50,[4],4600 nM
N[C@H]1CCN(C(=O)c2csc3c(O)c4c(c(O)c23)C(=O)c2ccccc2C4=O)C1,IC50,[2],2600 nM
NCCNC(=O)c1cc2c(O)c3c(c(O)c2s1)C(=O)c1ccccc1C3=O,IC50,[1],8300 nM
same,IC50,[2],3700 nM
same,IC50,[3],> 20000 nM
same,IC50,[4],> 20000 nM
Cc1c(C(=O)N2CC[C@H](N)C2)sc2c(O)c3c(c(O)c12)C(=O)c1ccccc1C3=O,IC50,[1],5000 nM
same,IC50,[2],1600 nM
same,IC50,[3],200 nM
same,IC50,[4],2200 nM
COc1cccc2c1C(=O)c1c(O)c3c(c(O)c1C2=O)C[C@@](O)(C(=O)CO)C[C@@H]3O[C@H]1C[C@H](N)[C@H](O)[C@H](C)O1 [DOXORUBICIN],IC50,[1],400 nM
same,IC50,[2],700 nM
same,IC50,[17],200 nM
same,IC50,[4],1700 nM
O=C(NC1CCNCC1)c1cc2c(O)c3c(c(O)c2s1)C(=O)c1ccccc1C3=O,IC50,[1],1400 nM
same,IC50,[2],1600 nM
same,IC50,[3],3200 nM
same,IC50,[4],600 nM
O=C(N[C@H]1CCNC1)c1cc2c(O)c3c(c(O)c2s1)C(=O)c1ccccc1C3=O,IC50,[1],3500 nM
same,IC50,[2],1000 nM
same,IC50,[3],2900 nM
same,IC50,[4],6300 nM
N[C@@H]1CCN(C(=O)c2cc3c(O)c4c(c(O)c3s2)C(=O)c2ccccc2C4=O)C1,IC50,[1],400 nM
same,IC50,[2],400 nM
same,IC50,[3],1100 nM
same,IC50,[4],1500 nM
O=C(N[C@@H]1CCNC1)c1cc2c(O)c3c(c(O)c2s1)C(=O)c1ccccc1C3=O,IC50,[1],4100 nM
same,IC50,[2],1300 nM
same,IC50,[3],2700 nM
same,IC50,[4],5800 nM
NC1CCCN(C(=O)c2cc3c(O)c4c(c(O)c3s2)C(=O)c2ccccc2C4=O)C1 (racemic),IC50,[1],400 nM
same,IC50,[2],600 nM
same,IC50,[3],400 nM
same,IC50,[4],1200 nM
O=C(NC1CCCNC1)c1cc2c(O)c3c(c(O)c2s1)C(=O)c1ccccc1C3=O (racemic),IC50,[1],1400 nM
same,IC50,[2],1000 nM
same,IC50,[3],1100 nM
same,IC50,[4],2300 nM
N[C@@H]1CN(C(=O)c2cc3c(O)c4c(c(O)c3s2)C(=O)c2ccccc2C4=O)C[C@H]1N,IC50,[1],16100 nM
same,IC50,[2],10900 nM
same,IC50,[3],> 20000 nM
same,IC50,[4],> 20000 nM
